Laboratory results reported in US9545393B2, “Methods and compositions for treating pain” (The Board of Trustees of the Leland Stanford Junior …, priority 2012, dated 2017).

System: rats subjected to carrageenan insult to the right hind paw
Assay: Randall-Selitto paw pressure test, carrageenan-induced hyperalgesia in rats
Type: in vivo, rat
Settings: naloxone 1 mg/kg s.c., with or without Alda-1; carrageenan rats
Experimental: Rats. Male Wistar rats (170-190 g) were provided by Charles River Laboratories or Butantan Institute Animal Facility and housed in a temperature-controlled (22±1° C.) and light-controlled (12/12 h light/dark cycle) room. All rats were housed in their surrounding for at least 3 days. Groups of 5-6 rats were used.
Drugs Used. 0.1 ml saline (control), carrageenan (200 μg for rats, 100 μg for mice; Marine Colloids), or prostaglandin E2 (100 ng, Sigma) was administered by intraplantar injection into the right hind paw to induce hyperalgesia. These doses were chosen based on previous studies by our laboratory groups (Aley K O, et al., (2000) Chronic hypersensitivity for inflammatory nociceptor sensitization mediated by the epsilon isozyme of protein kinase C. The Journal of neuroscience: the official journal of the Society for Neuroscience 20: 4680-4685; Konno K, et al., (2008) Crotalphine, a novel potent analgesic peptide from the venom of the South American rattlesnake Crotalus durissus terrificus. Peptides 29: 1293-1304).
Alda-1 dose (2 mg/kg/per injection, dissolved in 50% PEG/50% DMSO) was established in preliminary studies and given in multiple doses due to its estimated short half-life. Alda-1 was injected subcutaneously to the dorsal side of the neck 15 minutes before carrageenan or saline, and again at 30 and 150 minutes after carrageenan, prostaglandin E2 or saline injection. One subset of animals received Alda-1 only 30 and 150 minutes after carrageenan injection. Where indicated, naloxone (1 mg/kg per injection) or vehicle (saline) was given 10 minutes prior to each Alda-1 treatment to the dorsal side of the neck.
Nociception Assessment. The experimental performer was blinded to both genotype and/or treatments. Nociceptive response was assessed by the von Frey method for mice and the Randall-Selitto method for rats immediately before and 180 minutes after carrageenan or prostaglandin E2 injection. Both mice and rats were acclimated to the testing equipment one day before baseline testing.
Randall-Selitto method: Nociceptive threshold was determined using the Randall-Selitto paw pressure test (Ugo-Basile), as previously described (Gutierrez V P, et al., (2008) Crotalphine induces potent antinociception in neuropathic pain by acting at peripheral opioid receptors. European journal of pharmacology 594: 84-92). The baseline values varied between 65-75 g of force. Animals with baseline out of this range (about 10%) were excluded prior to initiating the study in order to achieve uniform testing.

C=CCN1CC[C@]23c4c5ccc(O)c4O[C@H]2C(=O)CC[C@@]3(O)[C@H]1C5 [Naloxone, reference compound]
Effect of naloxone on nociceptive threshold: no effect
